Data from PMC11392934 (Nature Communications, 2024).

Experiments:
[1] = molecular target: T1, LacY (Escherichia coli, UniProt P02920); test: inhibition of lactose-dependent NADPH production in MleP-LacY vesicles; assay type: biochemical; conditions: 100 µM D-lactose, pH 7, 30 °C; competitive; coupled read-out
T1 sequence (P02920 1-417): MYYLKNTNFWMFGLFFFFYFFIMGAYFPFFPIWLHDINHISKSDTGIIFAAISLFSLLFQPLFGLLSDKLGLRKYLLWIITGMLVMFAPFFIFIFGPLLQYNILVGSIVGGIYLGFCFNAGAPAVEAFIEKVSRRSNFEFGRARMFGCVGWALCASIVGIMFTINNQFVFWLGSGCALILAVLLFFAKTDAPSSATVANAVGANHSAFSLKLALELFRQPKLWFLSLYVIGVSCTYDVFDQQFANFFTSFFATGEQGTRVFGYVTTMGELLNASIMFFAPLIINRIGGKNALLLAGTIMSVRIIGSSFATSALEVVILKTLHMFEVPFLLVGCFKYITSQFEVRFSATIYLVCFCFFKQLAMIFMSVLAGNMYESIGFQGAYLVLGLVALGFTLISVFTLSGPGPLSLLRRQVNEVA

[2] = molecular target: T2, MleS (Lactococcus lactis, UniProt Q48662); test: initial H+ consumption rate by pH microelectrode; assay type: biochemical; conditions: product inhibition; 5 mM L-malate, pH 7, 30 °C
T2 sequence (Q48662 1-540): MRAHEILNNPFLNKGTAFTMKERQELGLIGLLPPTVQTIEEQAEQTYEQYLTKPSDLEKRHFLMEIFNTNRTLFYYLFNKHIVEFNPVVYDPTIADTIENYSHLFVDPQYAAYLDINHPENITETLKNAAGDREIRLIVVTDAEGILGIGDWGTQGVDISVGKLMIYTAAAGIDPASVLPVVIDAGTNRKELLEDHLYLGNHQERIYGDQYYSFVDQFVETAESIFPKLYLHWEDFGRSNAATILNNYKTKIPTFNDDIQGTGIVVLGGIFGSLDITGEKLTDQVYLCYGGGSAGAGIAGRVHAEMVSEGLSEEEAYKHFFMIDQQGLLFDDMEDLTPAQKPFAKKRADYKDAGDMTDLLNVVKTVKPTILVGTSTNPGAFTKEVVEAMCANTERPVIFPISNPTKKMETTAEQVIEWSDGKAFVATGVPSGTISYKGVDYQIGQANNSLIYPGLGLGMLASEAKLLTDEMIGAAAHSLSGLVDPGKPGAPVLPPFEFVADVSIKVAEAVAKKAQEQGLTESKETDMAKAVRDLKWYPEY

Row | % reduction of initial rate at 25 mM [2] | Compound | effect at 20 mM [1]
1 |  | CS[C@@H]1O[C@H](CO)[C@H](O)[C@H](O)[C@H]1O [methyl-β-D-thiogalactoside] | methyl-β-D-thiogalactoside (TMG) and thiodigalactoside (TDG)
2 | 50% | C[C@H](O)C(=O)O [L-lactate] | 
3 |  | OC[C@H]1O[C@@H](S[C@@H]2O[C@H](CO)[C@H](O)[C@H](O)[C@H]2O)[C@H](O)[C@@H](O)[C@H]1O [thiodigalactoside] | NADPH fluorescence is reduced in the presence non-hydrolysable substrates
